Measured values as given in publication PMC12040169 (PLOS Biology, 2025).

Assay: in vitro
Conditions: human, hela cells, % viability

| SMILES | viability at 28.5 h, 10 µM [%] |
| --- | --- |
| O=C(NCC1COc2ccccc2O1)N1CCCC(CO)C1 (stereo not shown) [CBK156030] | 91.3 |
| CCNC(=O)NC[C@H]1C[C@@H]2CCN1C[C@@H]2c1cc(C2CCCC2)nn1C [CBK288743] | 93.6 |
| CC(=O)N1CCCC1C(=O)N1CC(C(=O)Nc2nc3c(C)cc(C)cc3s2)C1 (stereo not shown) [CBK286039] | 86 |
| COc1ccccc1C(=O)NC1CN2CCC1CC2 (stereo not shown) [CBK018475C] | 75.5 |
| CCOc1ncccc1NC(=O)Cc1cccc(OC)c1 [CBK256406] | 94.8 |
| COC(=O)c1sc(NC(=O)c2cccnc2)c(C#N)c1C [CBK265007] | 89.4 |
| CCC(=O)Nc1ccc(C(=O)N2CCN(c3ccccc3)CC2)cc1 [CBK307425] | 105 |
| O=C(CSCc1nc2ccccc2[nH]1)Nc1ccc2ccccc2c1 [CBK263262] | 90.5 |
| Cc1c(C(=O)NC(C)c2ccncc2)oc2c(F)cccc12 (stereo not shown) [CBK282105] | 103 |
| N#CCCCN1CCN(c2nccnc2OCc2cccnc2)CC1 [CBK083144] | 96.3 |
| CCCn1c(C(=O)Nc2cccnc2)cc2c(=O)n(C)c(=O)n(C)c21 [CBK287838] | 90.8 |
| N#CCCCN1CCC(Oc2nccnc2OCCN2C(=O)CCC2=O)CC1 [CBK084349] | 99.4 |
| C1=CC2CC1CC2CN1CCN(Cc2cccnc2)CC1 (stereo not shown) [CBK027284] | 100 |
| CCOCCCn1c(SC(C)C#N)nc2ccc(Br)cc2c1=O (stereo not shown) [CBK306084] | 85.7 |
| O=C(N[C@H]1CO[C@H]2[C@@H]1OC[C@@H]2Nc1nccc(-c2cccs2)n1)C1CC1 [CBK289517] | 95 |
| Cc1cnn(CC(=O)N2CC[C@H]3NC(=O)c4ccccc4OCCCCC[C@H]3C2)c1 [CBK292010] | 107 |
| O=C(c1cc(F)c(F)cc1F)N1CCC2(CCCN(CCS(=O)(=O)c3ccccc3)C2)C1 (stereo not shown) [CBK132003] | 105 |
| CC(=O)c1cccc(NC(=O)Nc2ccc(S(=O)(=O)Nc3cc(C)on3)cc2)c1 [CBK299794] | 111 |
| Cc1ccc(C(=O)Nc2ccc(N3CCCCC3)c(F)c2)c(=O)n1C [CBK281390] | 89.5 |
| CC(C)C(=O)NC(c1ccco1)c1ccc2cccnc2c1O (stereo not shown) [CBK263277] | 96.5 |
| N/C(=N/OCC(=O)Nc1cccc2ccccc12)c1nonc1N [CBK265234] | 90.6 |
| O=C(c1ccco1)N1CCC(n2c(=O)oc3ccccc32)CC1 [CBK284350] | 92.8 |
| COc1ccc(-c2cc(C3CCN(C4CCSCC4)C3)[nH]n2)cc1 (stereo not shown) [CBK285282] | 99.3 |
| COc1ccc(S(=O)(=O)N(C)c2ccc(N3CCNCC3)c3ccccc23)cc1 [CBK022404C] | 94.9 |
| Cc1[nH]c(=O)[nH]c(=S)c1C(=O)Nc1ccc(C(F)(F)F)cc1 [CBK115510] | 96.2 |
| C[C@@H](Nc1nc(-c2cc(C(F)(F)F)cc(C(F)(F)F)c2)cnc1N)c1ccccc1 [CBK063720] | 105 |

| SMILES | viability at 28.5 h, 10 µM [%] |
| --- | --- |
| Cc1cc(C)n(CC(=O)N2CCC(c3cc4cccnc4[nH]3)CC2)n1 [CBK284999] | 91.3 |
| O=C(O)c1cccc(N2N=C(c3ccccc3)CC2=O)c1 [CBK286966] | 96.5 |
| COc1ccc(C2(C(=O)NCc3cccs3)CC2)cc1 [CBK149831] | 106 |
| Cc1nccn1CCCNC(=O)c1ccc(N2CCCC2)cc1 [CBK281589] | 81.6 |
| NC(=O)CCNC(=O)C1(c2ccccc2)CCCC1 [CBK160929] | 104 |
| COc1ccc(-c2csc(CC(=O)O)n2)cc1 [CBK159469] | 85.4 |
| Cc1ccc(CNS(=O)(=O)N(C)C)cc1 [CBK091778] | 80.9 |
| CN(C(=O)CCn1c(=O)oc2cc(Cl)ccc21)C1CCNC1 (stereo not shown) [CBK304310C] | 101 |
| CCNc1cc(-c2ccc(Cl)cc2)ncn1 [CBK090880] | 99 |
| O=C(O)CSc1c[nH]c2ccccc12 [CBK026377] | 93.9 |
| Cc1ccc2c(c1)C(=O)CC1(CCC3C(C(=O)N4CCCC4)C31)O2 (stereo not shown) [CBK284951] | 98.3 |
| COc1ccc(C(=O)Nc2ccc3c(c2)nc2n3CCN(Cc3ccccc3)C2)cc1 [CBK266820] | 82.5 |
| O=C(O)c1ccc(Oc2ccc3c(c2)C(=O)N(c2nccs2)C3=O)cc1 [CBK261200] | 101 |
| CCCN(C(=O)CCc1ccc(C)cc1C)C1CCNCC1 [CBK304302C] | 109 |
| FC(F)(F)c1cc(NCCC2CCCCN2)cc(C(F)(F)F)c1 (stereo not shown) [CBK016963] | 88.6 |
| O=C([C@@H]1Cc2c([nH]c3ccccc23)C2(CCN(Cc3ccccc3)C2)N1)N1CCOCC1 (stereo partly shown) [CBK059363T] | 97.3 |
| CCC(C)(C)c1ccc(S(=O)(=O)NCCCN2CCCC2)cc1 [CBK044126] | 95.8 |
| O=C(CC(C(=O)O)N1CCOCC1)Nc1ccccc1 (stereo not shown) [CBK267008] | 111 |
| COc1ccc(-c2nnc(SCc3csc(Nc4ccccc4)n3)n2-c2ccccc2)cc1 [CBK265205] | 89.1 |
| CS(=O)(=O)N1CC2(CCN(Cc3ccc(Cl)c(Cl)c3)CC2)c2ccccc21 [CBK084043] | 102 |
| Cc1ccc(-c2nc(C3CCCN(C(=O)NC4CCCCC4)C3)n3ccccc23)cc1 (stereo not shown) [CBK047241] | 94.4 |
| O=C(Cc1ccccc1C(=O)O)Nc1ccc(-n2cncn2)c(Cl)c1 [CBK286756] | 85.7 |
| CCNC(=O)N1CC2(CCN(Cc3cc(OC)c(OC)c(OC)c3)CC2)c2ccccc21 [CBK126689] | 96.5 |
| COc1ccccc1CNc1ncnc2[nH]ncc12 [CBK288100] | 99.5 |
| CN1CCC(N2CC[C@@H]3[C@H]2C(=O)NC[C@H](CCC(=O)NCc2ccc(F)cc2)N3C)CC1 [CBK289022] | 90.6 |
| Cc1cc(C)c2oc(-c3cccc(NC(=O)c4cccc(Cl)c4Cl)c3C)nc2c1 [CBK264005] | 84.2 |

| SMILES | viability at 28.5 h, 10 µM [%] |
| --- | --- |
| O=c1cc(CO)oc(CN2CCSCC2)c1O [CBK288404] | 89 |
| Cc1onc(-c2ccccc2)c1C(=O)N1CCC(C(N)=O)CC1 [CBK158721] | 84.4 |
| CC(C)Cc1nc(C(=O)N2CCC3(C2)NC(=O)NC3=O)cs1 (stereo not shown) [CBK305534] | 91.8 |
| CN(Cc1ccc(-c2ccc(S(C)(=O)=O)cc2)nc1)C1CCN(C(=O)Cc2cccc(C(F)(F)F)c2)CC1 [CBK164104T] | 90.2 |
| Cc1ccc(-n2c(SCC(=O)N3CCC(C(=O)O)CC3)nc3ccccc3c2=O)cc1C [CBK297540] | 81.4 |
| CCCCC(c1ccc(Cl)cc1)N(CCN(C)C)c1ccccn1 (stereo not shown) [CBK012315F] | 86.3 |
| COc1cc(-c2ccc3c(c2)COC2(CCCNC2)O3)cc(OC)c1OC (stereo not shown) [CBK092299] | 93 |
| N#Cc1cccc(CN2CCCC3(CCN(C(=O)Cc4c[nH]c5ccccc45)C3)C2)c1 (stereo not shown) [CBK132032] | 103 |
| COc1ccc(-c2ccc3c(c2)C(=O)N2CC[C@H](NC(=O)CCC(=O)O)[C@H]2C(=O)N3)cc1 [CBK289331] | 84.4 |
| O=C(CN(c1cccc(Cl)c1)S(=O)(=O)c1ccccc1)Nc1cccc2cccnc12 [CBK263270] | 87.9 |
| CN(C(=O)C12CCOCC1CN(c1nccnc1C#N)C2)C1CCCC1 (stereo not shown) [CBK304244] | 93.6 |
| CN(C)CCCN1C(=O)C(O)=C(C(=O)c2ccccc2)C1c1ccccn1 (stereo not shown) [CBK287778] | 110 |
| O=C(NCCOc1ccc(-c2ccc(F)cc2)nn1)c1ccc(Br)o1 [CBK294429] | 83.1 |
| CCN(C)c1c(C)nc2c(OCC(=O)N(C)C)cccn12 [CBK147316] | 107 |
| CS(=O)(=O)Nc1cccc(-c2nnn[nH]2)c1 [CBK062150] | 90.4 |
| Cc1coc(C)c1C(=O)CC1(O)C(=O)N(CCCC#N)c2ccccc21 (stereo not shown) [CBK307383] | 86 |
| C[C@]12CN(Cc3cccs3)C[C@H]1C(=O)Nc1ccccc1C(=O)N2 [CBK284705] | 98.2 |
| COc1ccc(-c2cnc(N3CCOCC3)c3nccn23)cc1 [CBK091285] | 87.2 |
| O=C(CN1CCC(O)(Cn2cnc3ccccc32)CC1)c1ccc(-c2ccccc2)cc1 [CBK286306] | 86.8 |
| COc1ccc(C(=O)O)cc1S(=O)(=O)Nc1c(-c2cccs2)nc2cc(C)ccn12 [CBK297484] | 82.9 |
| CC(=O)COc1cc(OCC(C)=O)c2c3c(c(=O)oc2c1)CCC3 [CBK307219] | 85.1 |
| O=C(CSCc1nc(O)c2c3c(sc2n1)CCCC3)Nc1ccc(F)cc1 [CBK265568] | 106 |
| COc1ccc(-c2cc(C(=O)NCc3ccc(N)cc3)cnc2-c2cccc(C)c2)cc1 [CBK036728] | 106 |
| COc1ccc(CN2CCNC(=O)C2CC(=O)O)cc1OC (stereo not shown) [CBK269991] | 102 |

Same assay, conditions: human, hela cells, % viability, bulk resorufin, single well

| SMILES | viability at 28.5 h, 10 µM [%] |
| --- | --- |
| CCOc1ccccc1CN1CCN(C)CC1 [CBK261577] | 91 |
| COc1ccc(CC(=O)Nc2cccc(-c3ccc4c(c3)COC3(CCNCC3)O4)c2)cc1F [CBK115913] | 86.5 |
| O=C1NC(=O)C(CCc2ccncc2)(Cc2ccc3c(c2)OCO3)C(=O)N1CCc1ccccc1 (stereo not shown) [CBK266307] | 105 |
